This is an account of results in patent publication US10500178B2, “LTB4 inhibition to prevent and treat human lymphedema” (The Board of Trustees of the Leland Stanford Junior …, priority 2015, dated 2019).

The test system of test [1] is HLECs. The experiment in a line: tube formation assay on Matrigel. Format: cell-based, human. The note with it: 400 nM LTB4; 10 μM U75302+LTB4. The protocol:
Tube formation assay. Matrigel (BD Matrigel Basement Membrane Matrix Growth Factor Reduced, Phenol Red Free) was thawed on ice overnight, dispersed into 48-well plates (100 μl per well) and allowed to polymerize for 30 minutes at 37° C. Serum starved HLECs were seeded on the Matrigel at a density of 1×10^4 cells per well. Images of four representative fields were taken 10 hrs later. […]

For test [2], the system named is HLECs. The experiment in a line: trans-well migration assay. It is filed as cell-based, human. The note with it: 400 nM LTB4. The protocol:
Migration assay. Cellular migration was evaluated using a modified Boyden chamber assay. Briefly, 2×10^4 serum-starved HLECs in 250 μl serum free medium were seeded in the upper chamber of the trans-well. 750 μl of serum free ECM containing various drugs was placed in the lower chamber. Ten hours later, migrated cells were stained with a modified Giemsa solution (Sigma-Aldrich) for quantification.

The test system of test [3] is HLECs. In words: fibrin gel sprouting assay. It is filed as cell-based, human. The note with it: 400 nM LTB4. The protocol: Fibrin gel sprouting assay. HLECs were first coated overnight onto the Cytodex-3 beads with an approximate concentration of 400 cells per bead. On the following day, the microbeads were transferred to 2.0 mg/ml fibrinogen solution containing 0.15 units/ml of aprotinin. Later, 0.625 units/ml thrombin was added to the mixture to gelatinize the fibrin gel. Endothelial sprouts (vessel outgrowth) were observed within 3 days of culture using phase micrographic images and quantified as number of vessels per bead.

Test [4] concerns HLECs. The experiment in a line: LTB4-mediated HLEC apoptosis. It is filed as cell-based, human.
The test system of test [5] is lymphatic vessel formation. The experiment in a line: Matrigel plug assay (LYVE1, VEGFR3 staining). Format: in vivo, mouse. The note with it: Matrigel plugs in SCID mice. The protocol:
Matrigel plug assay. SCID mice (NOD.Cg-Prkdcscid I/2rgtmlWjl/SzJ, The Jackson Laboratory) of 4-6 weeks of age were used for Matrigel plug injection. Two 250 μl Matrigel plugs were subcutaneously injected into the dorsal surface of the mice. Plugs were recovered with the adjacent subcutaneous tissue 14d later. Tissue was then embedded in paraffin and sectioned for staining.

Test [6] relates to p-Sphk1. The experiment in a line: Western blot of p-SphK1 in HLECs. It is filed as cell-based, human. The following applies: exogenous LTB4 (400 nM). The protocol: (§1) Western Blot HLECs were lysed with RIPA buffer containing protease and phosphatase inhibitors. Lysates were sonicated briefly and centrifuged. The supernatant was collected and protein concentration was determined by BCA assay. 60 µg of protein were resolved on a 10% SDS-PAGE gel, transferred to a nitrocellulose membrane, blocked with 5% milk and probed with one of the following antibodies: anti-Sphk1 (3297,Cell Signaling); antip-Sphk1(SP1641, ECM Biosciences); anti-NICD (ab8925,Abcam), anti-VEGFR3 (AF743,R&D); anti-DLL4 (ab7280, Abcam). Actin was used to normalize the total protein. Immunofluorescence Immunofluorescence staining was performed using the following primary antibodies: anti-5-LO (3289, Cell Signaling); anti-MPO (ab45977, Abcam); Anti-CD68 (ab22506, Abcam); anti-Prox1(ab101851, Abcam); anti-NICD (ab8925, Abcam), anti-EphrinB2 (AF496,R&D); anti-VEGFR3 (AF743,R&D); anti-Hey1(ab22614, Abcam); Alexa-Fluor-555 Phalloidin (8953,Cell Signaling); anti-DIG(11093274910, Sigma-Aldrich). Negative controls with isotype IgG were run in parallel. Images were acquired by Zeiss 710 confocal microscopy and analyzed using ImageJ software.
For orientation: Immunoblotting shows a protein as a band on a membrane.

For test [7], the system named is VEGFR3, Vegfc, Vegfd. The experiment in a line: lymphangiogenic factor levels in HLECs (qRT-PCR, Western blot). It is filed as cell-based, human. The note with it: 400 nM LTB4, 100 ng/ml S1P, 25 μM DAPT. The protocol:
as §1
Quantitative RT-PCR. Quantitative PCR (qRT-PCR) was performed using FastStart SYBR Green (Roche) on a Lightcycler 480. mRNA expression relative to GAPDH mRNA levels were calculated using the delta-delta threshold cycle (ΔΔCT) method. PCR microarrays were purchased from Qiagen: RT2 Profiler PCR Array 384-Well Format, Mouse Angiogenesis PAMM-024ZA) and VEGF Signaling (330231 PAMM-091ZA). […]
For orientation: Quantitative PCR measures a nucleic acid by following its amplification.

The subject of test [8] is Notch (NICD, DLL4). The experiment in a line: Western blot of NICD and DLL4 in HLECs. Format: cell-based, human. The protocol: as §1
Test [9] concerns Notch transcriptional activity. In words: CSL luciferase reporter assay in HLECs. It is filed as cell-based, human. The protocol: pG13-6-CSL luciferase assay. CSL reporter activity was determined as described previously. HLECs (5.0×105) were […] and transfected with both 1 μg CSL luciferase reporter ([…]) and 10 ng Renilla luciferase pRL-SV40 (Promega) using Nucleofactor (Lonza). Luciferase and Renilla activity were then determined with Dual-Luciferase® Reporter Assay System (Promega) and Berthold dual-injection illuminometer.
(In general: Reporter assays use an easily measured gene product as a stand-in for the process of interest.)

Test [10] deals with HLECs. The experiment in a line: NICD and filopodia histology of HLECs. Format: cell-based, human. The protocol: as §1
Test [11] deals with HLECs. In words: HLEC lymphangiogenesis (tube formation, migration, wound healing, sprouting). Format: cell-based, human. The note with it: 100 nm, 200 nm, 400 nm or 800 nm LTB4. The protocol:
Tube formation assay. Matrigel (BD Matrigel Basement Membrane Matrix Growth Factor Reduced, Phenol Red Free) was thawed on ice overnight, dispersed into 48-well plates (100 μl per well) and allowed to polymerize for 30 minutes at 37° C. Serum starved HLECs were seeded on the Matrigel at a density of 1×10^4 cells per well. Images of four representative fields were taken 10 hrs later. ImageJ software was used to determine total cellular cord length. Migration assay. Cellular migration was evaluated using a modified Boyden chamber assay. Briefly, 2×10^4 serum-starved HLECs in 250 μl serum free medium were seeded in the upper chamber of the trans-well. 750 μl of serum free ECM containing various drugs was placed in the lower chamber. Ten hours later, migrated cells were stained with a modified Giemsa solution (Sigma-Aldrich) for quantification. Wound healing assay. 6×10^5 HLECs were seeded on an Easy Slide (Millipore) the day before the experiment and allowed to form a fully confluent monolayer, and then cells were serum starved for 12 hrs. A 200 μl pipet tip was used to scratch a straight line across the middle of the cell monolayer. Cell debris was removed through PBS washing. Images were taken immediately after the scratch and the same windows were imaged again 12 hrs later. The rate of cell migration was calculated as the average percent wound closure from at least 5 independent experiments using ImageJ software. Fibrin gel sprouting assay. HLECs were first coated overnight onto the Cytodex-3 beads with an approximate concentration of 400 cells per bead. On the following day, the microbeads were transferred to 2.0 mg/ml fibrinogen solution containing 0.15 units/ml of aprotinin. Later, 0.625 units/ml thrombin was added to the mixture to gelatinize the fibrin gel. Endothelial sprouts (vessel outgrowth) were observed within 3 days of culture using phase micrographic images and quantified as number of vessels per bead.

For the compound `CCCCC/C=C\C[C@@H](O)/C=C/C=C/C=C\[C@@H](O)CCCC(=O)O` [LTB4, leukotriene B4], the “tube formation (tube area)” value in test [1] was “decreased tube area”. For the same compound, the HLEC migration entry in [2] was “inhibited HLEC migration”. Further, the “sprout formation in 3D-fibrin-gel assay” value in test [3] was “preventing them from forming sprouts”. Moreover, the LEC apoptosis entry in test [4] is on record as “induced LEC apoptosis in a concentration-dependent manner”. Further, the “VEGFR3 expression of HLECs in vivo” value in test [5] was “inhibited the VEGFR3 expression”. In test [5] (recovered 14d later), the “lymphatic vessel formation in vivo” value is reported as “attenuated lymphatic vessel formation”. The “p-Sphk1 in HLECs” value in test [6] is “diminished p-Sphk1”. Moreover, the “VEGFR3 expression and Vegfc, Vegfd transcription” value in [7] is reported as “reduced”. In addition, the “cleaved Notch (NICD) and DLL4 levels” value in test [8] is recorded as “decreased”. Further, the “Notch transcriptional activity (CSL reporter), in words” value in test [9] (LTB4 100-800 nm for 24 h) is on record as “inhibited Notch transcriptional activity in a dose dependent fashion”. The “reduction of reporter activity” value in test [9] (physiologic (400 nM) levels of LTB4) is more than 50%. Besides, in test [10], the “filopodia, nuclear-localized NICD and EphrinB2, cell shape” value was “increased filopodia and less nuclear-localized NICD and EphrinB2”. Also, the “concentration dependence of lymphangiogenesis block” value in test [11] is given as “blocked lymphangiogenesis in a concentration-dependent manner”.
